Common to all, as to assay: DTP human tumour cell line panel, 48 h
In experiment [1] the test system is A498 renal.
In experiment [2] the test system is ACHN renal.
Experiment [3] deals with IGROV1 ovarian.
The test system of experiment [4] is HT29 colon.
Experiment [5] relates to OVCAR-5 ovarian.
The subject of experiment [6] is COLO 205 colon.
The test system of experiment [7] is OVCAR-3 ovarian.
The subject of experiment [8] is SN12C renal.
The test system of experiment [9] is DU-145 prostate.
In experiment [10] the test system is M14 melanoma.

For orientation: TGI means the concentration at which net growth stops. The low end stands for more potent growth arrest, the high end for less potent growth arrest. Usually GI50 stands for the concentration giving 50% growth inhibition.

The structures appear in SMILES notation.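 1) Cells in 96-well plates. 2) Compound, 48 h, 5 concentrations. 3) Linear interpolation between surrounding doses. 4) Unreached endpoint = highest concentration. GI50: concentration for 50% inhibition of growth. Definition used: TGI = concentration required for complete inhibition of growth.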 Bounds are passed on as bounds.

`NC(Cc1ccccc1)c1nccs1` (stereo not drawn): the concentration for total growth inhibition (TGI) in experiment [1], in experiment [2], in experiment [3], in experiment [4], in experiment [5] and in experiment [6] was > 100 µM in each case. Moreover, the TGI in experiment [7], in experiment [8], in experiment [9] and in experiment [10] was > 100 µM each time.
Take `C/C=C(\C)C(=O)OC1/C=C(\C)CC/C=C(\C)CC2OC(=O)C(C)(OC(C)=O)C12` (stereo not drawn): the TGI in [1], in [2], in [3], in experiment [4], in [5] and in [6] was > 100 µM throughout. In addition, the TGI in experiment [7], in experiment [8], in experiment [9] and in [10] was > 100 µM each time.
`CC1=NOC(=O)/C1=C/c1ccc2c(c1)OCO2`: the TGI is 62.3 µM in experiment [1]; 38.2 µM in experiment [2]; 78.5 µM in experiment [3]; 57.3 µM in [4]; > 100 µM in experiment [5]; 32.4 µM in experiment [6]. The TGI was 98.9 µM in experiment [7], 59.4 µM in experiment [8], 68.6 µM in experiment [9] and > 100 µM in [10].
For `Cc1ccc(C(=O)NC2CC2)cc1-c1ccc2[nH]ncc2c1`, the GI50 was > 12.7 µM in experiment [1]; > 25 µM in [2]; > 25 µM in experiment [3]; > 25 µM in [4]; > 25 µM in [5]; > 25 µM in experiment [6]. The GI50 in experiment [7], in [8], in experiment [9] and in experiment [10] was > 25 µM throughout. Also, the TGI in [1], in experiment [2], in experiment [3], in experiment [4], in experiment [5] and in [6] was > 25 µM each time. In addition, the TGI in experiment [7], in experiment [8], in experiment [9] and in experiment [10] was > 25 µM throughout.
Take `C[C@]12C[C@H](O)[C@H]3[C@@H](CCC4=CC(=O)CC[C@@]43C)[C@@H]1CC[C@@H]2c1csc(-c2ccccc2)n1`: the TGI in experiment [1], in [2], in [3], in experiment [4], in experiment [5] and in [6] was > 100 µM each time. Further, the TGI in experiment [7], in experiment [8], in experiment [9] and in experiment [10] was > 100 µM in each case.
In the case of `CO/N=C(\COc1ccc2oc(-c3ccccc3)cc(=O)c2c1)c1ccc(F)cc1`, the GI50 in experiment [1] is 29.1 µM; in experiment [2] it was 17.2 µM; in [3] it was 15.2 µM; in experiment [4], 31.4 µM; in experiment [5], 17.5 µM; in experiment [6] it was 59.5 µM. For the same compound, the GI50 was > 100 µM in experiment [7], 16.9 µM in [8], 25 µM in [9] and 32.2 µM in experiment [10]. Also, the TGI in experiment [1] is 82.9 µM; in experiment [2] it was 34.5 µM; in experiment [3], 35.9 µM; in experiment [4] it was > 100 µM; in experiment [5] it was 39.1 µM; in experiment [6] it was > 100 µM. In addition, the TGI in [7] was > 100 µM; in experiment [8], 35 µM; in experiment [9] it was 76.5 µM; in experiment [10] it was > 100 µM.
Take `CCOC(=O)C1=C(C)NC(c2ccco2)=C(C#N)C1c1cccc([N+](=O)[O-])c1` (stereo not drawn): the TGI was 45.7 µM in experiment [2]; 3.28 µM in [3]; 0.562 µM in [4]; 99.5 µM in experiment [5]; 0.039 µM in experiment [6]; 0.0373 µM in experiment [7]. The TGI was 19.7 µM in [8], 4.02 µM in experiment [9] and 3.28 µM in experiment [10]. Also, the GI50 in [3] is 0.0157 µM; in experiment [4], 0.01 µM; in experiment [5] it was 0.0331 µM; in [6], 0.0149 µM; in experiment [7], 0.0147 µM; in experiment [8] it was 0.0465 µM. The GI50 was 0.0316 µM in [9] and 0.0132 µM in experiment [10].
`COc1c(N2CCN(CN3C(=O)C(=Nc4ccc(S(=O)(=O)Nc5ncccn5)cc4)c4cc(Cl)ccc43)C(C)C2)c(F)cc2c(=O)c(C(=O)O)cn(C3CC3)c12` (stereo not drawn): the GI50 in [2] was 11.8 µM; in experiment [3], 15.8 µM; in experiment [4], 7.76 µM; in [5], > 50 µM; in [6], 18.4 µM; in experiment [7], 14.3 µM. Besides, the GI50 in [8] was 10.6 µM; in [9] it was 16.3 µM; in experiment [10] it was 13.8 µM. For the same compound, the TGI in experiment [2], in experiment [3], in experiment [4], in [5], in experiment [6] and in experiment [7] was > 50 µM throughout. Moreover, the TGI is 27.5 µM in [8], > 50 µM in experiment [9] and 44.7 µM in experiment [10].
Turning to `CCOC(=O)/C=C/c1cccc(F)c1`, the TGI in [1], in [2], in [3], in experiment [4], in experiment [5] and in experiment [6] was > 100 µM in each case. Further, the total growth inhibition concentration (TGI) in experiment [8], in experiment [9] and in [10] was > 100 µM throughout.
`CC[C@]12C=CCN3CCC4(c5cc([C@@]6(C(=O)OC)CC7CN(CCc8c6[nH]c6ccccc86)CC6CCCCC67)c(OC)cc5N(C)C4[C@](O)(C(=O)OC)C1OC(C)=O)[C@@H]32` (stereo partly drawn): the TGI in [1] is 0.576 µM; in experiment [2], 11.6 µM; in [3], 0.651 µM; in experiment [4], < 0.01 µM; in experiment [5] it was 0.0926 µM; in experiment [6] it was < 0.01 µM. Also, the figures for the TGI in [8], in experiment [9] and in experiment [10] were 17.5 µM, 14.2 µM and 1.35 µM, respectively.
